Literature values, collected in patent US12594236B2, “Method of treating acute exacerbation of schizophrenia with long-acting injectable depot composition” (LABORATORIOS FARMACEUTICOS ROVI, S.A., priority 2021, dated 2026).
Where two headings read alike, the source gives them in different places.

System: acute schizophrenia

| Structure (SMILES) | placebo-adjusted reduction of the PANSS total score (441 mg, 12 weeks, oral aripiprazole 3 weeks after randomization) | placebo-adjusted reduction of the PANSS total score (882 mg, 12 weeks, oral aripiprazole 3 weeks after randomization) | placebo-adjusted reduction of the PANSS total score (25 mg eq, 13 weeks) | placebo-adjusted reduction of the PANSS total score (100 mg eq, 13 weeks) | placebo-adjusted reduction of the PANSS total score (150 mg eq, 13 weeks) |
| --- | --- | --- | --- | --- | --- |
| CCCCCCCCCCCC(=O)OCN1C(=O)CCc2ccc(OCCCCN3CCN(c4cccc(Cl)c4Cl)CC3)cc21 [Aripiprazole Lauroxil] | −10.9 | −11.9 |  |  |  |
| CCCCCCCCCCCCCCCC(=O)OC1CCCn2c1nc(C)c(CCN1CCC(c3noc4cc(F)ccc34)CC1)c2=O (centres unmarked) [Paliperidone Palmitate] |  |  | −5.1 | −8.7 | −9.8 |
